According to patent publication US20230143604A1, “QW DOSING OF GIP RECEPTOR AGONIST PEPTIDE COMPOUNDS AND USES THEREOF” (TAKEDA PHARMACEUTICAL COMPANY LIMITED, priority 2020, published 2023):
Starred links: 1 amine or outer side, 2 acyl side, 3 side chain; linkers in the order of their positions; H or OH if unused. Non-standard residues stand in square brackets, D forms with d. Residues, ends and D or L forms follow the SMILES beside them. Groups on a side chain read outwards from the residue. *: point of attachment. C18 diacid = O=C(O)CCCCCCCCCCCCCCCCC(=O)*; C17 diacid = O=C(O)CCCCCCCCCCCCCCCC(=O)*; γGlu = O=C(O)[C@H](CCC(=O)[*:2])N[*:1]; NMeY = CN[C@@H](Cc1ccc(O)cc1)C(=O)O; AEEA = NCCOCCOCC(=O)O; Aib = CC(C)(N)C(=O)O

Assay: Solubility in phosphate buffer pH 7.4
Procedure, shortened: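 3 mg of peptide treated with 100 μL portions of 200 mM phosphate buffer pH 7.4, sonicating/vortexing up to 1 min, with further buffer added until fully dissolved. Solubility then quantified by HPLC.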

[1] = pH 7.4, aqueous buffer, pH 7.4 Phosphate Buffer - Solubility, 200 mM Phosphate buffer pH 7.4
[2] = pH 7.4, solubility in phosphate buffer at pH 7.4, 200 mM phosphate buffer pH 7.4

Structure (SMILES)	solubility [1] [mg/mL]	solubility [2] [mg/mL]	solubility (pH 7.4) [mg/mL]	solubility (pH 7.4, aqueous buffer) [mg/mL]
CC[C@H](C)[C@H](NC(=O)[C@H](CO)NC(=O)[C@H](Cc1ccc(O)cc1)NC(=O)[C@H](CC(=O)O)NC(=O)[C@H](CO)NC(=O)[C@@H](NC(=O)[C@H](Cc1ccccc1)NC(=O)[C@@H](NC(=O)CNC(=O)[C@H](CCC(=O)O)NC(=O)C(C)(C)NC(=O)[C@H](Cc1ccc(O)cc1)NC)[C@@H](C)O)[C@@H](C)CC)C(=O)N[C@@H](C)C(=O)N[C@@H](CC(C)C)C(=O)N[C@@H](CC(=O)O)C(=O)N[C@@H](CCCNC(=N)N)C(=O)NC(C)(C)C(=O)N[C@@H](C)C(=O)N[C@@H](CCC(N)=O)C(=O)NC(C)(C)C(=O)N[C@@H](CCCCNC(=O)COCCOCCNC(=O)COCCOCCNC(=O)CC[C@H](NC(=O)CC[C@H](NC(=O)CCCCCCCCCCCCCCCCC(=O)O)C(=O)O)C(=O)O)C(=O)N[C@@H](Cc1ccccc1)C(=O)N[C@H](C(=O)N[C@@H](CC(N)=O)C(=O)N[C@@H](Cc1c[nH]c2ccccc12)C(=O)N[C@@H](CC(C)C)C(=O)N[C@@H](CC(C)C)C(=O)N[C@@H](C)C(=O)N[C@@H](CCC(N)=O)C(=O)N[C@@H](CCCNC(=N)N)C(=O)N1CCC[C@H]1C(=O)N[C@@H](CO)C(=O)N[C@@H](CO)C(=O)NCC(=O)N[C@@H](C)C(=O)N1CCC[C@H]1C(=O)N1CCC[C@H]1C(=O)N1CCC[C@H]1C(=O)N[C@@H](CO)C(N)=O)C(C)C [Compound 35] (H-[NMeY][Aib]EGTFISDYSIALDR[Aib]AQ[Aib]K([AEEA-AEEA-γGlu-γGlu-C18 diacid])FVNWLLAQRPSSGAPPPS-NH2)	≥ 30	≥ 15	–	–
CC[C@H](C)[C@H](NC(=O)[C@H](CCCCN)NC(=O)[C@H](CC(=O)O)NC(=O)[C@H](CC(C)C)NC(=O)C(C)(C)NC(=O)[C@@H](NC(=O)[C@H](CO)NC(=O)[C@H](Cc1ccc(O)cc1)NC(=O)[C@H](CC(=O)O)NC(=O)[C@H](CO)NC(=O)[C@@H](NC(=O)[C@H](Cc1ccccc1)NC(=O)[C@@H](NC(=O)CNC(=O)[C@H](CCC(=O)O)NC(=O)C(C)(C)NC(=O)[C@@H](N)Cc1ccc(O)cc1)[C@@H](C)O)[C@@H](C)CC)[C@@H](C)CC)C(=O)N[C@@H](CCCCNC(=O)COCCOCCNC(=O)COCCOCCNC(=O)CC[C@H](NC(=O)CCCCCCCCCCCCCCCCC(=O)O)C(=O)O)C(=O)N[C@@H](CCC(N)=O)C(=O)N[C@@H](C)C(=O)N[C@@H](CC(=O)O)C(=O)N[C@@H](Cc1ccccc1)C(=O)N[C@H](C(=O)N[C@@H](CC(N)=O)C(=O)N[C@@H](Cc1c[nH]c2ccccc12)C(=O)N[C@@H](CC(C)C)C(=O)N[C@@H](CC(C)C)C(=O)N[C@@H](C)C(=O)N[C@@H](CCC(N)=O)C(=O)N[C@@H](CCCNC(=N)N)C(=O)NCC(=O)O)C(C)C [Compound 172] (H-Y[Aib]EGTFISDYSI[Aib]LDKIK([AEEA-AEEA-γGlu-C18 diacid])QADFVNWLLAQRG-OH)	–	–	≥ 15	≥ 30
CC[C@H](C)[C@H](NC(=O)[C@H](CCCCN)NC(=O)[C@H](CC(=O)O)NC(=O)[C@H](CC(C)C)NC(=O)[C@H](C)NC(=O)[C@@H](NC(=O)[C@H](CO)NC(=O)[C@H](Cc1ccc(O)cc1)NC(=O)[C@H](CC(=O)O)NC(=O)[C@H](CO)NC(=O)[C@@H](NC(=O)[C@H](Cc1ccccc1)NC(=O)[C@@H](NC(=O)CNC(=O)[C@H](CCC(=O)O)NC(=O)C(C)(C)NC(=O)[C@@H](N)Cc1ccc(O)cc1)[C@@H](C)O)[C@@H](C)CC)[C@@H](C)CC)C(=O)N[C@@H](C)C(=O)N[C@@H](CCC(N)=O)C(=O)NC(C)(C)C(=O)N[C@@H](CCCCNC(=O)COCCOCCNC(=O)COCCOCCNC(=O)CC[C@H](NC(=O)CC[C@H](NC(=O)CCCCCCCCCCCCCCCC(=O)O)C(=O)O)C(=O)O)C(=O)N[C@@H](Cc1ccccc1)C(=O)N[C@H](C(=O)N[C@@H](CCC(=O)O)C(=O)N[C@@H](Cc1c[nH]c2ccccc12)C(=O)N[C@@H](CC(C)C)C(=O)N[C@@H](CC(C)C)C(=O)N[C@@H](C)C(=O)N[C@@H](CCC(N)=O)C(=O)N[C@@H](CCCNC(=N)N)C(=O)NCC(=O)O)C(C)C [Compound 132] (H-Y[Aib]EGTFISDYSIALDKIAQ[Aib]K([AEEA-AEEA-γGlu-γGlu-C17 diacid])FVEWLLAQRG-OH)	–	–	≥ 15	≥ 30
CC[C@H](C)[C@H](NC(=O)[C@H](CO)NC(=O)[C@H](Cc1ccc(O)cc1)NC(=O)[C@H](CC(=O)O)NC(=O)[C@H](CO)NC(=O)[C@@H](NC(=O)[C@H](Cc1ccccc1)NC(=O)[C@@H](NC(=O)CNC(=O)[C@H](CCC(=O)O)NC(=O)C(C)(C)NC(=O)[C@H](Cc1ccc(O)cc1)NC)[C@@H](C)O)[C@@H](C)CC)C(=O)N[C@@H](C)C(=O)N[C@@H](CCCCNC(=O)COCCOCCNC(=O)COCCOCCNC(=O)CC[C@H](NC(=O)CC[C@H](NC(=O)CCCCCCCCCCCCCCCC(=O)O)C(=O)O)C(=O)O)C(=O)N[C@@H](CC(=O)O)C(=O)N[C@@H](CCCNC(=N)N)C(=O)NC(C)(C)C(=O)N[C@@H](C)C(=O)N[C@@H](CCC(N)=O)C(=O)NC(C)(C)C(=O)N[C@@H](CC(N)=O)C(=O)N[C@@H](Cc1ccccc1)C(=O)N[C@H](C(=O)N[C@@H](CC(N)=O)C(=O)N[C@@H](Cc1c[nH]c2ccccc12)C(=O)N[C@@H](CC(C)C)C(=O)N[C@@H](CC(C)C)C(=O)N[C@@H](C)C(=O)N[C@@H](CCC(N)=O)C(=O)N[C@@H](CCCNC(=N)N)C(=O)O)C(C)C [Compound 7] (H-[NMeY][Aib]EGTFISDYSIAK([AEEA-AEEA-γGlu-γGlu-C17 diacid])DR[Aib]AQ[Aib]NFVNWLLAQR-OH)	–	–	≥ 15	≥ 30
CC[C@H](C)[C@H](NC(=O)[C@H](CO)NC(=O)[C@H](Cc1ccc(O)cc1)NC(=O)[C@H](CC(=O)O)NC(=O)[C@H](CO)NC(=O)[C@@H](NC(=O)[C@H](Cc1ccccc1)NC(=O)[C@@H](NC(=O)CNC(=O)[C@H](CCC(=O)O)NC(=O)C(C)(C)NC(=O)[C@H](Cc1ccc(O)cc1)NC)[C@@H](C)O)[C@@H](C)CC)C(=O)N[C@@H](C)C(=O)N[C@@H](CC(C)C)C(=O)N[C@@H](CC(=O)O)C(=O)N[C@@H](CCCNC(=N)N)C(=O)N[C@H](C(=O)N[C@@H](Cc1c[nH]cn1)C(=O)N[C@@H](CCC(N)=O)C(=O)NC(C)(C)C(=O)N[C@@H](CC(N)=O)C(=O)N[C@@H](Cc1ccccc1)C(=O)N[C@H](C(=O)N[C@@H](CC(N)=O)C(=O)N[C@@H](Cc1c[nH]c2ccccc12)C(=O)N[C@@H](CC(C)C)C(=O)N[C@@H](CC(C)C)C(=O)N[C@@H](C)C(=O)N[C@@H](CCC(N)=O)C(=O)N[C@@H](CCCCNC(=O)COCCOCCNC(=O)COCCOCCNC(=O)CC[C@H](NC(=O)CCCCCCCCCCCCCCCCC(=O)O)C(=O)O)C(=O)O)C(C)C)[C@@H](C)CC [Compound 248] (H-[NMeY][Aib]EGTFISDYSIALDRIHQ[Aib]NFVNWLLAQK([AEEA-AEEA-γGlu-C18 diacid])-OH; C-terminus assumed)	–	–	–	≥ 6.8
CC[C@H](C)[C@H](NC(=O)[C@H](CO)NC(=O)[C@H](Cc1ccc(O)cc1)NC(=O)[C@H](CC(=O)O)NC(=O)[C@H](CO)NC(=O)[C@@H](NC(=O)[C@H](Cc1ccccc1)NC(=O)[C@@H](NC(=O)CNC(=O)[C@H](CCC(=O)O)NC(=O)C(C)(C)NC(=O)[C@@H](N)Cc1ccc(O)cc1)[C@@H](C)O)[C@@H](C)CC)C(=O)N[C@@H](C)C(=O)N[C@@H](CC(C)C)C(=O)N[C@@H](CC(=O)O)C(=O)N[C@@H](CCCCN)C(=O)NC(C)(C)C(=O)N[C@@H](C)C(=O)N[C@@H](CCC(N)=O)C(=O)N[C@@H](C)C(=O)N[C@@H](CCCCNC(=O)COCCOCCNC(=O)COCCOCCNC(=O)CC[C@H](NC(=O)CC[C@H](NC(=O)CCCCCCCCCCCCCCCCC(=O)O)C(=O)O)C(=O)O)C(=O)N[C@@H](Cc1ccccc1)C(=O)N[C@H](C(=O)N[C@@H](CCC(=O)O)C(=O)N[C@@H](Cc1c[nH]c2ccccc12)C(=O)N[C@@H](CC(C)C)C(=O)N[C@@H](CC(C)C)C(=O)N[C@@H](C)C(=O)N[C@@H](CCC(N)=O)C(=O)N[C@@H](CCCNC(=N)N)C(=O)NCC(=O)O)C(C)C [Compound 155] (H-Y[Aib]EGTFISDYSIALDK[Aib]AQAK([AEEA-AEEA-γGlu-γGlu-C18 diacid])FVEWLLAQRG-OH)	–	–	≥ 15	≥ 30
CC[C@H](C)[C@H](NC(=O)[C@H](Cc1ccccc1)NC(=O)[C@@H](NC(=O)CNC(=O)[C@H](CCC(=O)O)NC(=O)C(C)(C)NC(=O)[C@H](Cc1ccc(O)cc1)NC)[C@@H](C)O)C(=O)N[C@@H](CO)C(=O)N[C@@H](CC(=O)O)C(=O)N[C@@H](Cc1ccc(O)cc1)C(=O)N[C@@H](CO)C(=O)N[C@H](C(=O)NC(C)(C)C(=O)N[C@@H](CCCCNC(=O)COCCOCCNC(=O)COCCOCCNC(=O)CC[C@H](NC(=O)CC[C@H](NC(=O)CCCCCCCCCCCCCCCCC(=O)O)C(=O)O)C(=O)O)C(=O)N[C@@H](CC(=O)O)C(=O)N[C@@H](CCCNC(=N)N)C(=O)NC(C)(C)C(=O)N[C@@H](C)C(=O)N[C@@H](CCC(N)=O)C(=O)NC(C)(C)C(=O)N[C@@H](CC(N)=O)C(=O)N[C@@H](Cc1ccccc1)C(=O)N[C@H](C(=O)N[C@@H](CC(N)=O)C(=O)N[C@@H](Cc1c[nH]c2ccccc12)C(=O)N[C@@H](CC(C)C)C(=O)N[C@@H](CC(C)C)C(=O)N[C@@H](C)C(=O)N[C@@H](CCC(N)=O)C(=O)N[C@@H](CCCNC(=N)N)C(=O)N1CCC[C@H]1C(=O)N[C@@H](CO)C(=O)N[C@@H](CO)C(=O)NCC(=O)N[C@@H](C)C(=O)N1CCC[C@H]1C(=O)N1CCC[C@H]1C(=O)N1CCC[C@H]1C(=O)N[C@@H](CO)C(N)=O)C(C)C)[C@@H](C)CC [Compound 28] (H-[NMeY][Aib]EGTFISDYSI[Aib]K([AEEA-AEEA-γGlu-γGlu-C18 diacid])DR[Aib]AQ[Aib]NFVNWLLAQRPSSGAPPPS-NH2)	≥ 30	≥ 15	–	–
